Test: Solubility (20° C.) of branched chain-containing and straight chain-containing aromatic compounds in various solvents
Settings: for solubility in CPME: saturated in CPME (cyclopentylmethylether) at 20° C.; for solubility in chloroform: saturated in chloroform at 20° C.; for solubility in ethyl acetate: saturated in ethyl acetate at 20° C.; for solubility in isopropyl acetate: saturated in isopropyl acetate at 20° C.; for solubility in toluene: saturated in toluene at 20° C.

Molecule | solubility in CPME | solubility in chloroform | solubility in ethyl acetate | solubility in isopropyl acetate | solubility in toluene
3,4,5-tri(2′,3′-dihydrophytyloxy)benzyl alcohol [Example 5] | >50 wt % | >50 wt % | >50 wt % | >50 wt % | >50 wt %
CCCCCCCCCCCCCCCCCCCCCCOc1ccc(C(N)c2ccc(C)cc2)cc1 (centres unmarked) [compound 3] | 0.01 wt % | 0.8 wt % | 0.2 wt % | 0.1 wt % | 0.01 wt %
CCCCCCCCCCCCCCCCCCCCCCOc1ccc(CO)c(OCCCCCCCCCCCCCCCCCCCCCC)c1 [compound 2] |  |  | 0.3 wt % | 0.06 wt % | 
CCCCCCCCCCCCCCCCCCOc1cc(CO)cc(OCCCCCCCCCCCCCCCCCC)c1OCCCCCCCCCCCCCCCCCC [Comparative Example 1] | 4.5 wt % | 9.9 wt % | 0.2 wt % | 0.02 wt % | 2.6 wt %
TERGITOL-Adduct of 3-hydroxymethylphenol [Example 21] | >50 wt % | >50 wt % | >50 wt % |  | 

From patent US10711033B2, “Branched chain-containing aromatic compound” (AJINOMOTO CO., INC., priority 2010, dated 2020)
